Measurements published in PubChem BioAssay (NCI).
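Protocol summary: plate cells (96-well), add compound at 5 concentrations, incubate 48 h, interpolate endpoints linearly. Definition used: TGI = concentration required for complete inhibition of growth.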

Legend:
Assay in all cases: NCI anticancer screen, dose series, 48 h
[1] = test system: A498 renal
[2] = test system: M19-MEL melanoma
[3] = test system: SNB-75 CNS
[4] = test system: LOX IMVI melanoma
[5] = test system: M14 melanoma
[6] = test system: OVCAR-3 ovarian
[7] = test system: LXFL 529 NSCLC
[8] = test system: NCI-H226 lung
[9] = test system: OVCAR-5 ovarian
[10] = test system: OVCAR-4 ovarian
[11] = test system: HOP-92 NSCLC
[12] = test system: DMS 273 small cell lung
[13] = test system: CAKI-1 renal
[14] = test system: RXF 393 renal
[15] = test system: NCI-H460 lung
[16] = test system: SK-MEL-28 melanoma
[17] = test system: A549 NSCLC
[18] = test system: EKVX NSCLC
[19] = test system: UACC-62 melanoma
[20] = test system: COLO 205 colon
[21] = test system: SNB-78 CNS
[22] = test system: KM20L2 colon
[23] = test system: TK-10 renal
[24] = test system: HCC-2998 colon
[25] = test system: NCI-H23 lung
[26] = test system: NCI-H522 lung
[27] = test system: IGROV1 ovarian
[28] = test system: K-562 leukemia
[29] = test system: HOP-62 NSCLC
[30] = test system: SF-539 CNS
[31] = test system: MALME-3M melanoma
[32] = test system: U251 CNS
[33] = test system: UO-31 renal
[34] = test system: HL-60(TB) leukemia
[35] = test system: XF 498 CNS
[36] = test system: KM12 colon
[37] = test system: SW-620 colon
[38] = test system: DLD-1 colon
[39] = test system: SK-OV-3 ovarian
[40] = test system: 786-0 renal
[41] = test system: ACHN renal
[42] = test system: CCRF-CEM leukemia
[43] = test system: RPMI-8226 leukemia
[44] = test system: SF-295 CNS
[45] = test system: SN12C renal
[46] = test system: SNB-19 CNS
[47] = test system: HCT-116 colon
[48] = test system: MOLT-4 leukemia
[49] = test system: SF-268 CNS
[50] = test system: UACC-257 melanoma
[51] = test system: SK-MEL-5 melanoma
[52] = test system: SK-MEL-2 melanoma
[53] = test system: HOP-18 NSCLC
[54] = test system: OVCAR-8 ovarian
[55] = test system: HT29 colon
[56] = test system: DMS 114 small cell lung
[57] = test system: SR leukemia
[58] = test system: HCT-15 colon

Measured: TGI

Cc1cccc(-c2nnc3s/c(=C\c4ccc(N(C)C)cc4)c(=O)n23)c1
not listed: [55] | [56] | [57] | [58]
> 100 µM: all other assays above

CCCn1cc2c(=O)[nH]c(SC)nc2n1
98.1 µM: [35]
89.1 µM: [8]
not listed: [2] | [6] | [19] | [22] | [26] | [28] | [29] | [39] | [40]
> 100 µM: all other assays above
